This is an account of results in ChEMBL document CHEMBL1177832, “One unique steroidal sapogenin obtained through the microbial transformation of ruscogenin by Phytophthora cactorum ATCC 32134 and its potential inhibitory effect on tissue factor (TF) procoagulant activity” (Bioorg Med Chem Lett, 2010).

The test system of this test is THP-1. The test is described as follows: Anticoagulant activity in human THP1 cells assessed as inhibition of TNF-alpha-stimulated tissue factor expression incubated 1 hr before TNFalpha challenge measured after 5 hrs. Format: functional, cell-based.

As for `C[C@@H]1CC[C@@]2(OC1)O[C@H]1C[C@H]3[C@@H]4CCC5=CC(=O)C[C@@H](O)[C@]5(C)[C@H]4CC[C@]3(C)[C@H]1[C@@H]2C`, the IC50 stood at 290 nM.
For the compound `COc1cc(/C=C/C(=O)CC(=O)/C=C/c2ccc(O)c(OC)c2)ccc1O` [CURCUMIN], the IC50 turned out to be 1210 nM.
Regarding `C[C@@H]1CC[C@@]2(OC1)O[C@H]1C[C@H]3[C@@H]4CC=C5C[C@@H](O)CC[C@]5(C)[C@H]4CC[C@]3(C)[C@H]1[C@@H]2C` [DISOGENIN], the IC50 amounted to 6960 nM.
For `C[C@@H]1CC[C@@]2(OC1)O[C@H]1C[C@H]3[C@@H]4CC=C5C[C@@H](O)C[C@@H](O)[C@]5(C)[C@H]4CC[C@]3(C)[C@H]1[C@@H]2C` [RUSCOGENIN], the IC50 was found to be 2270 nM.
For the compound `C[C@H]1CC[C@@]2(OC1)O[C@H]1C[C@H]3[C@@H]4CC[C@@H]5C[C@@H](O)CC[C@]5(C)[C@H]4CC[C@]3(C)[C@H]1[C@@H]2C` [SARSASAPOGENIN], the concentration for half-maximal inhibition (IC50) is 3300 nM.

Broadly, the IC50 is the concentration that inhibits the measured activity by half.
